Like-named read-outs stand apart in the source and are kept apart here. Peptide text beside a SMILES is read from it.
How the values were obtained:
[1] = target: T1, DRB1*0101 (DR1) (Homo sapiens, UniProt P01903+P01911, A100R/D57E/F55L/F60I/F76Y/I96L/L162R/M171V/P40L/Q125E/R42F/V115G/Y59C); test: Class II peptide-binding assay, DR1;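 note: competition assay: unlabeled test peptides inhibit binding of a radiolabeled probe peptide to purified DR, with half-maximal inhibition taken as an approximate dissociation constant Kd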
T1 construct: used as sources of human HLA class II molecules; endogenous in cells; host or cells: LG2 (EBV-transformed homozygous B cell line)

[2] = target: T2, DRB5*0101 (DR2w2a) (Homo sapiens, UniProt P01903+Q30154); test: Class II peptide-binding assay, DR2w2a (DR2w2B2);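 note: competitive binding assay: unlabeled peptide inhibiting binding of a radiolabeled probe peptide to purified DR molecules at pH 7.0, IC50 approximating Kd, lower means stronger binding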
T2 construct: used as sources of human HLA class II molecules; endogenous in cells; host or cells: GM3107 (EBV-transformed homozygous B cell line)
Protocol: (§1) Class II peptide-binding assays. […] These assays were chosen as to be representative of the most common DR alleles.
(§2) Radiolabeled peptides were iodinated using the chloramine-T method. […] In appropriate stoichiometric conditions, the IC50 of an unlabeled test peptide to the purified DR is a reasonable approximation of the affinity of interaction (Kd). Peptides were tested in two to four completely independent experiments. […] Final detergent concentration in the incubation mixture was 0.05% Nonidet P-40. Assays were performed at pH 7.0 with the exception of DR3, which was performed at pH 4.5, and DRw53, which was performed at pH 5.0.
(§3) All subsequent inhibition and direct binding assays were the performed using these class II concentrations.

[3] = target: T3, DRB1*0301 (DR3w17) (Homo sapiens, UniProt P01903+P01911, A100K/A102G/A103R/A169T/F55Y/I96L/K41T/L162R/M171V/P40S/Q125H/Q178H/Q39Y/R42S/S66N/T106N/T262R/W38E/Y61H); test: Class II peptide-binding assay, DR3 (pH 4.5);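 note: unlabeled peptide competing with a radiolabeled probe peptide for binding to affinity-purified HLA-DR3, IC50 regarded as an approximation of Kd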
T3 construct: used as sources of human HLA class II molecules; endogenous in cells; host or cells: MAT (EBV-transformed homozygous B cell line)
T3 sequence (P01903 26-254, other chains not shown): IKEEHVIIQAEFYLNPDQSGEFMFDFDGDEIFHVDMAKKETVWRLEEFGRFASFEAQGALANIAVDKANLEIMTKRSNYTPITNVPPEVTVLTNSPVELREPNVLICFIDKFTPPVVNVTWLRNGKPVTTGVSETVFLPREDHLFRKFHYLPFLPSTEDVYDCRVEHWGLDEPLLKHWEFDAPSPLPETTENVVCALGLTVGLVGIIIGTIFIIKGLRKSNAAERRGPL

[4] = target: T4, DRB1*0401 (DR4w4) (Homo sapiens, UniProt P01903+P01911, A100K/A169T/F76Y/I96L/K127E/L162R/M171V/N62H/P40V/Q125Y/R42H/S133A/S149N/S66Y/V115G/V209L/W38E); test: Class II peptide-binding assay, DR4w4;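 note: unlabeled test peptides compete with a radiolabeled probe peptide for binding to affinity-purified HLA-DR, with DR amount titrated to capture a small fraction of label, IC50 approximating Kd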
T4 construct: used as sources of human HLA class II molecules; endogenous in cells; host or cells: PREISS (EBV-transformed homozygous B cell line)

[5] = target: DRB1*0701 (DR7) (Homo sapiens, UniProt P01903+P01911, A100R/A102G/A103Q/D57E/D86V/E43K/F76Y/K127E/L162R/M171V/P40G/Q125H/Q99D/R33Q/R42Y/R54Q/S133A/S66F/T210M/V115G/Y107V/Y59L/Y89S); test: Class II peptide-binding assay, DR7;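 note: unlabeled peptides compete with an iodinated probe peptide for binding to affinity-purified HLA-DR at neutral pH, DR amount titered to bind a small tracer fraction, IC50 approximating Kd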
[6] = target: T5, DRB1*1101 (DR5w11) (Homo sapiens, UniProt P01903+P01911, A100R/A169T/A87E/I96F/K41T/L162R/M171V/P40S/Q125H/Q178H/Q39Y/Q99D/R42S/S66Y/T262R/V115G/W38E); test: Class II peptide-binding assay, DR5w11; details: read-out: In IC50 Format DR5w11; Table VIII;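 note: competition by unlabeled test peptide against iodinated probe peptide binding to affinity-purified HLA-DR, class II amount titrated beforehand, half-maximal inhibitory concentration read as approximate Kd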
T5 construct: used as sources of human HLA class II molecules; endogenous in cells; host or cells: SWEIG (EBV-transformed homozygous B cell line)
T5 sequence (P01903 26-254, other chains not shown): as above
Protocol: as §1, §2, §3

[7] = read-out: In IC50 Format DR3, Table VIII
[8] = read-out: In IC50 Format DR3 nM, Table VIII, values in parentheses read as lower bounds

## CC[C@H](C)[C@H](NC(=O)[C@H](CO)NC(=O)[C@H](CCC(=O)O)NC(=O)[C@H](CC(C)C)NC(=O)[C@H](C)NC(=O)[C@@H](N)CC(=O)O)C(=O)N[C@@H](CCSC)C(=O)N[C@H](C(=O)N[C@H](C(=O)N[C@@H](CCCCN)C(=O)N[C@@H](CO)C(=O)N[C@H](C(=O)N[C@@H](CO)C(=O)N[C@@H](Cc1ccccc1)C(=O)N[C@@H](CCCNC(=N)N)C(=O)O)C(C)C)[C@@H](C)O)[C@@H](C)O [Peptide 774.00]
[1]; purified HLA DR1, read-out: DR1 nM (In IC50 Format)
  IC50: 0.385 µM
[2]; purified HLA DR2w2β2, read-out: DR2w2B2 nM (In IC50 Format)
  IC50: 20 µM
[3]; purified HLA DR3, read-out: DR3 nM (In IC50 Format)
  IC50: 33.3 µM
[4]; purified HLA DR4w4, read-out: DR4w4 nM (In IC50 Format)
  IC50: 0.11 µM
[5]; purified HLA DR7, read-out: DR7 nM (In IC50 Format)
  IC50: 0.0841 µM

## CC[C@H](C)[C@H](NC(=O)[C@H](CC(N)=O)NC(=O)[C@H](CCCCN)NC(=O)[C@H](Cc1ccccc1)NC(=O)[C@H](Cc1ccccc1)NC(=O)[C@H](Cc1c[nH]cn1)NC(=O)[C@@H](NC(=O)[C@@H](NC(=O)[C@@H]1CCCN1C(=O)[C@H](CC(N)=O)NC(=O)[C@H](CCC(=O)O)NC(=O)[C@H](CC(=O)O)NC(=O)[C@H](CCC(N)=O)NC(=O)[C@@H](NC(=O)[C@H](CCCNC(=N)N)NC(=O)CN)[C@@H](C)O)C(C)C)C(C)C)C(=O)N[C@H](C(=O)N[C@H](C(=O)N1CCC[C@H]1C(=O)N[C@@H](CCCNC(=N)N)C(=O)O)[C@@H](C)O)C(C)C [Peptide 507.02]
[1]; read-out: In IC50 Format DR1, Table VIII
  IC50: 0.0172 µM
[2]; read-out: In IC50 Format DR2w2β2, Table VIII
  IC50: 0.25 µM
[3]; [7]
  IC50: 60 µM
[4]; read-out: In IC50 Format DR4w4, Table VIII
  IC50: 0.0058 µM
[6]
  IC50: 0.133 µM
[5]; read-out: In IC50 Format DR7, Table VIII
  IC50: 1 µM

## CC(C)[C@H](N)C(=O)N[C@H](C(=O)N[C@@H](CS)C(=O)N[C@@H](Cc1ccccc1)C(=O)NCC(=O)N1CCC[C@H]1C(=O)N[C@@H](CCC(=O)O)C(=O)N[C@@H](C)C(=O)N[C@@H](CC(=O)O)C(=O)N[C@@H](CCC(N)=O)C(=O)N[C@@H](CS)C(=O)N[C@H](C(=O)N[C@@H](C)C(=O)N[C@@H](CS)C(=O)N[C@@H](C)C(=O)O)C(C)C)[C@@H](C)O [Peptide 39.0356]
[3]; [8]
  IC50: > 111 µM

## CC(C)C[C@H](NC(=O)[C@H](CCC(N)=O)NC(=O)[C@@H](NC(=O)[C@@H]1CCCN1)C(C)C)C(=O)N[C@@H](Cc1c[nH]c2ccccc12)C(=O)N[C@H](C(=O)N[C@@H](CC(=O)O)C(=O)N[C@@H](CO)C(=O)N[C@H](C(=O)N1CCC[C@H]1C(=O)N1CCC[C@H]1C(=O)N1CCC[C@H]1C(=O)NCC(=O)N[C@H](C(=O)N[C@@H](CCCNC(=N)N)C(=O)O)[C@@H](C)O)[C@@H](C)O)C(C)C [Peptide 39.0413]
[3]; [7]
  IC50: 10 µM

## CC[C@H](C)[C@H](N)C(=O)N[C@@H](Cc1c[nH]c2ccccc12)C(=O)N[C@@H](CCCCN)C(=O)N[C@@H](Cc1ccccc1)C(=O)N1CCC[C@H]1C(=O)N[C@@H](CC(=O)O)C(=O)N[C@@H](CCC(=O)O)C(=O)N[C@@H](CCC(=O)O)C(=O)NCC(=O)N[C@@H](C)C(=O)N[C@@H](CS)C(=O)N[C@@H](CCC(N)=O)C(=O)N1CCC[C@H]1C(=O)N[C@@H](CS)C(=O)N1CCC[C@H]1C(=O)O [Peptide 39.0358] (H-IWKFPDEEGACQPCP-OH)
[3]; [8]
  IC50: > 111 µM

## CC(C)C[C@H](NC(=O)[C@H](CC(=O)O)NC(=O)[C@@H](NC(=O)[C@H](CS)NC(=O)[C@H](CO)NC(=O)[C@@H](N)Cc1c[nH]cn1)C(C)C)C(=O)N[C@@H](CC(=O)O)C(=O)N[C@@H](CC(=O)O)C(=O)N[C@@H](CCCCN)C(=O)NCC(=O)N[C@@H](CS)C(=O)N1CCC[C@H]1C(=O)N[C@@H](C)C(=O)N[C@@H](CCC(=O)O)C(=O)N[C@@H](CCC(N)=O)C(=O)O [Peptide 39.0359]
[3]; [8]
  IC50: > 111 µM

## CC(C)C[C@H](NC(=O)[C@H](CS)NC(=O)[C@H](Cc1c[nH]cn1)NC(=O)[C@H](CCCNC(=N)N)NC(=O)[C@H](C)NC(=O)[C@H](CC(N)=O)NC(=O)[C@@H](NC(=O)[C@H](Cc1ccc(O)cc1)NC(=O)[C@H](CCC(=O)O)NC(=O)[C@H](CCCNC(=N)N)NC(=O)[C@@H]1CCCN1C(=O)[C@H](CC(C)C)NC(=O)CNC(=O)[C@H](CCC(N)=O)NC(=O)[C@@H](N)CC(C)C)C(C)C)C(=O)O [Peptide 39.0355]
[3]; [8]
  IC50: > 111 µM

## CC(C)C[C@H](NC(=O)[C@@H]1CCCN1C(=O)[C@H](C)NC(=O)[C@@H](NC(=O)[C@H](CC(N)=O)NC(=O)[C@H](CO)NC(=O)[C@H](C)NC(=O)[C@@H]1CCCN1C(=O)[C@H](CC(=O)O)NC(=O)CNC(=O)[C@H](CC(=O)O)NC(=O)[C@H](Cc1ccccc1)NC(=O)[C@H](CO)NC(=O)[C@H](CCC(=O)O)NC(=O)[C@@H]1CCCN1)[C@@H](C)O)C(=O)O [Peptide 39.0350]
[3]; [8]
  IC50: > 111 µM

## CC[C@H](C)[C@H](NC(=O)[C@H](C)NC(=O)[C@@H](N)CC(C)C)C(=O)N[C@H](C(=O)N[C@@H](C)C(=O)N[C@@H](CCCNC(=N)N)C(=O)N[C@@H](CCC(=O)O)C(=O)NCC(=O)N[C@@H](CC(=O)O)C(=O)N[C@@H](CS)C(=O)N[C@@H](C)C(=O)N1CCC[C@H]1C(=O)N[C@@H](CCC(=O)O)C(=O)N[C@@H](CCC(=O)O)C(=O)N[C@@H](CCCCN)C(=O)O)[C@@H](C)CC [Peptide 39.0405]
[3]; [7]
  IC50: > 120 µM
